Measured values taken from patent US11497734B2, “Dual inhibitors of TIM-3 and PD-1 pathways” (Aurigene Discovery Technologies Limited, priority 2017, dated 2022).

Tests used:
PD-L1 = biological target: T1, PD-L1 (Mus musculus, UniProt Q9EP73); test: Rescue of mouse splenocyte proliferation in the presence of recombinant PD-L1 (CFSE proliferation assay); format: cell-based; settings: 100 nM compound; anti-CD3/CD28 stimulated mouse splenocytes + PD-L1; 72 h; read-out: PDL1 (rescue of proliferation @ 100 nM)
T1 construct: Fc (Fc chimera); purchased R&D Systems 1019-B7-100
T1 sequence (Q9EP73 19-238 limits assumed): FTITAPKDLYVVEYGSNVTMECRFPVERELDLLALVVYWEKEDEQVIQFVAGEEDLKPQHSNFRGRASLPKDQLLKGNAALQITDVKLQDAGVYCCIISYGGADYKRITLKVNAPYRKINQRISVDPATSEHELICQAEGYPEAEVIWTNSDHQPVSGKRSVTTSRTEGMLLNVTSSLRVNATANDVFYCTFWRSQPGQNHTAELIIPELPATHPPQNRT
Protocol: Example 1: Rescue of Mouse Splenocyte Proliferation in the Presence of Recombinant PD-L1/PD-L2
Recombinant mouse PD-L1 (rm-PDL-1, cat no: 1019-B7-100; R&D Systems) were used as the source of PD-L1.
Mouse splenocytes harvested from 6-8 weeks old C57 BL6 mice; RPMI 1640 (GIBCO, Cat #11875); DMEM with high glucose (GIBCO, Cat #D6429); Fetal Bovine Serum [Hyclone, Cat #SH30071.03]; Penicillin (10000 unit/mL)-Streptomycin (10,000 μg/mL) Liquid (GIBCO, Cat #15140-122); MEM Sodium Pyruvate solution 100 mM (100×)), Liquid (GIBCO, Cat #11360); Nonessential amino acid (GIBCO, Cat #11140); L-Glutamine (GIBCO, Cat #25030); Anti-CD3 antibody (eBiosciences—16-0032); Anti-CD28 antibody (eBiosciences—16-0281); ACK lysis buffer (1 mL) (GIBCO, Cat #-A10492); Histopaque (density—1.083 gm/mL) (SIGMA 10831); Trypan blue solution (SIGMA-T8154); 2 mL Norm Ject Luer Lock syringe-(Sigma 2014-12); 40 μm nylon cell strainer (BD FALCON 35230); Hemacytometer (Bright line-SIGMA Z359629); FACS Buffer (PBS/0.1% BSA): Phosphate Buffered Saline (PBS) pH 7.2 (HiMedia TS1006) with 0.1% Bovine Serum Albumin (BSA) (SIGMA A7050) and sodium azide (SIGMA 08591); 5 mM stock solution of CFSE: CFSE stock solution was prepared by diluting lyophilized CFSE with 180 μL of Dimethyl sulfoxide (DMSO C2H6SO, SIGMA-D-5879) and aliquoted in to tubes for further use. Working concentrations were titrated from 10 μM to 1 μM. (eBioscience-650850-85); 0.05% Trypsin and 0.02% EDTA (SIGMA 59417C); 96-well format ELISA plates (Corning CLS3390); BD FACS caliber (E6016); Recombinant mouse B7-H1/PDL1 Fc Chimera, (rm-PD-L1 cat no: 1019-B7-100).
Splenocytes harvested in a 50 mL falcon tube by mashing mouse spleen in a 40 μm cell strainer were further treated with 1 mL ACK lysis buffer for 5 min at room temperature. After washing with 9 mL of RPMI complete media, cells were re-suspended in 3 mL of 1×PBS in a 15 mL tube. 3 mL of Histopaque was added carefully to the bottom of the tube without disturbing overlaying splenocyte suspension. After centrifuging at 800×g for 20 min at room temperature, the opaque layer of splenocytes was collected carefully without disturbing/mixing the layers. Splenocytes were washed twice with cold 1×PBS followed by total cell counting using Trypan Blue exclusion method and used further for cell based assays.
Splenocytes were cultured in RPMI complete media (RPMI+10% fetal bovine serum+1 mM sodium pyruvate+10,000 units/mL penicillin and 10,000 μg/mL streptomycin) and maintained in a CO2 incubator with 5% CO2 at 37° C.
CFSE Proliferation Assay: CFSE is a dye that passively diffuses into cells and hinds to intracellular proteins. 1×10^6 cells/mL of harvested splenocytes were treated with 5 μM of CFSE in pre-warmed 1×PBS/0.1% BSA solution for 10 min at 37° C. Excess CFSE was quenched using 5 volumes of ice-cold culture media to the cells and incubated on ice for 5 min. CFSE labeled splenocytes were further given three washes with ice cold complete RPMI media. CFSE labeled 1×10^5 splenocytes added to wells containing either MDA-MB231 cells (1×10^5 cells cultured in high glucose DMEM medium) or recombinant human PDL-1 (100 ng/mL) and test compounds. Splenocytes were stimulated with anti-mouse CD3 and anti-mouse CD28 antibody (1 μg/mL each), and the culture was further incubated for 72 h at 37° C. with 5% CO2. Cells were harvested and washed thrice with ice cold FACS buffer and % proliferation was analysed by flow cytometry with 488 nm excitation and 521 nm emission filters. Data Compilation, Processing and Inference: […]

recombinant human TIM-3 = test: Human PBMC IFN-γ release assay in the presence of recombinant TIM-3; format: cell-based; settings: 100 nM compound, plate-coated TIM-3 + anti-CD3, anti-CD28, 72 h
Protocol: Vehicle: Milli Q water; RPMI 1640 (GIBCO, Cat #11875); Fetal Bovine Serum [Hyclone, Cat #SH30071.03]; Penicillin (10000 unit/ml)-Streptomycin (10,000 μg/ml) liquid (GIBCO, Cat #15140-122); MEM Sodium Pyruvate solution 100 mM (100×). Liquid (GIBCO, Cat #11360); Nonessential amino acid (GIBCO, Cat #11140); L-Glutamine (GIBCO, Cat #25030); Recombinant human TIM-3 (rhGi24 TIM-3/B7-H5 Fc chimera (R&D systems, cat no: 7126-B7); Anti-h/m Gi24/TIM-3/B7-H5 purified mouse monoclonal IgG2B (R&D systems, cat no: MAB7126); Mouse IgG2B isotype control (R&D Systems cat no: MAB 004); Anti human-CD3 antibody (eBiosciences—16-0039); Anti human-CD28 antibody (eBiosciences—16-0289); Histopaque (density-1.077 gm/ml) (SIGMA 1077); Trypan Blue solution (SIGMA-T8154); Hemacytometer (Bright line-SIGMA Z359629); FACS Buffer containing Phosphate Buffered Saline (PBS) pH 7.2; (HiMedia TS1006) with 0.1% Bovine Serum Albumin (BSA) (SIGMA A7050) and sodium azide (SIGMA 08591); 96-well format ELISA plates (Corning 3599); 96-well format ELISA plates (Corning 3361); BD FACS caliber (E6016); Centrifuge (Eppendorf 5810 R); Human IFN-'γ Duo set ELISA kit (R&D Systems; cat no: DY-285).
Human PBMC IFN-γ Release Assay
96-well cell culture plates were pre-coated with recombinant human TIM-3 (2.5 μg/ml) and anti-human CD3 (2.5 μg/ml), and stored at 4° C. overnight. Anti-human TIM-3 and isotype control antibodies were either coated along with the TIM-3 or incubated for 30 min next day before addition of cells. On the next day, plates were washed with 1× PBS and then incubated with test compounds for 30 min. Isolated PBMC (0.1×10^6 cells/well) and anti-human CD28 antibodies (1 μg/ml) were added to the wells. The culture was further incubated for 72 h at 37° C. with 5% CO2. After 72 h of incubation the cell culture supernatants were collected after brief centrifugation at 200 g×5 min at 4° C. and processed for human IFN-γ measurement by ELISA following manufacturer's protocol (R&D Systems; DY-285).
In brief, 96-well ELISA plates were coated with 100 μl/well of capture antibody in coating buffer and incubated overnight at 4° C. Plates were washed five times with wash buffer and further blocked with 200 μl of 1× assay diluents for 1 hr at RT. Following wash step, 100 μl of cell culture supernatants were added to wells and further incubated for 2 hr at RT. Appropriate standards were also included. After wash step, plate was incubated for one hour with 100 μl/well of detection antibody. The wash step was repeated and the plate was incubated for 30 min with 100 μl/well of Avidin-HRP. The plate was washed four times with wash buffer and subsequently incubated for 15 min with 100 μl/well of substrate solution. 50 μl of stop solution was added to each well and the plate was read at 450 nm using Gen5 ver 2.05. Delta OD values were used for calculating the concentrations. The absorbance values were plotted against the standards and the concentration of IFN-γ was determined using GraphPad Prism software. Each experimental condition was carried out in triplicates.
The percent rescue of IFN-γ release of the selected compounds of present invention are set forth below wherein “A” refers to compounds having more than 70% rescue of IFN-γ release, “B” refers to compounds having rescue of IFN-γ release ranges from 50% to 69.9% and “C” refers to compounds having less than 50% rescue of IFN-γ release.

SMILES	activity at 0.1 µM (PD-L1)	TIM-3 (rescue of IFN γ release @ 100 nM) (recombinant human TIM-3)
CC(O)[C@H](NC(=O)N[C@@H](CC(N)=O)c1nc([C@@H](N)CCC(=O)O)no1)C(=O)O (some centres unmarked) [Compound 1]	68%	B (rescue of IFN-γ release ranges from 50% to 69.9%)
CCC(C)[C@H](NC(=O)N[C@@H](CC(N)=O)c1nc([C@@H](N)CO)no1)C(=O)O (some centres unmarked) [Compound 2]	73%	A (more than 70% rescue of IFN-γ release)
CC(O)[C@H](NC(=O)N[C@@H](CC(N)=O)c1nc([C@@H](N)Cc2ccccc2)no1)C(=O)O (some centres unmarked) [Compound 3]	62%	A (more than 70% rescue of IFN-γ release)
CC(O)[C@H](NC(=O)N[C@@H](CC(=O)O)c1nc([C@@H](N)CO)no1)C(=O)O (some centres unmarked) [Compound 4]	52%	C (less than 50% rescue of IFN-γ release)
CC(O)[C@H](NC(=O)N[C@@H](CCC(=O)O)c1nc([C@@H](N)CO)no1)C(=O)O (some centres unmarked) [Compound 5]	88%	A (more than 70% rescue of IFN-γ release)
CC(O)[C@H](NC(=O)N[C@@H](CCC(=O)O)c1nc([C@@H](N)CCCCN)no1)C(=O)O (some centres unmarked) [Compound 6]	52%	A (more than 70% rescue of IFN-γ release)
CC(O)[C@H](NC(=O)N[C@H](CC(N)=O)c1nc([C@@H](N)CO)no1)C(=O)O (some centres unmarked) [Compound 7]	74%	A (more than 70% rescue of IFN-γ release)
CC(O)[C@@H](N)c1noc([C@@H](CC(N)=O)NC(=O)N[C@H](CO)C(=O)O)n1 (some centres unmarked) [Compound 8]	68%	B (rescue of IFN-γ release ranges from 50% to 69.9%)
CC(C)[C@H](NC(=O)N[C@@H](CC(N)=O)c1nc([C@@H](N)CCCCN)no1)C(=O)O [Compound 9]	138%	C (less than 50% rescue of IFN-γ release)
CSCC[C@H](N)c1noc([C@H](CC(N)=O)NC(=O)N[C@@H](CC(=O)O)C(=O)O)n1 [Compound 10]	53%	C (less than 50% rescue of IFN-γ release)
NCCCC[C@H](N)c1noc([C@H](CCC(=O)O)NC(=O)N[C@@H](CO)C(=O)O)n1 [Compound 11]	60%	C (less than 50% rescue of IFN-γ release)
NCCCC[C@H](N)c1noc([C@H](CC(N)=O)NC(=O)N[C@@H](CO)C(=O)O)n1 [Compound 12]	41%	A (more than 70% rescue of IFN-γ release)
CC(O)[C@H](NC(=O)N[C@@H](CCCCN)c1nc([C@@H](N)CO)no1)C(=O)O (some centres unmarked) [Compound 13]	66%	C (less than 50% rescue of IFN-γ release)
COC(C)[C@H](NC(=O)N[C@@H](CC(N)=O)c1nc([C@@H](N)CO)no1)C(=O)O (some centres unmarked) [Compound 14]	84%	C (less than 50% rescue of IFN-γ release)
CCC(C)[C@H](NC(=O)N[C@H](C(=O)O)C(C)O)c1nc([C@@H](N)CO)no1 (some centres unmarked) [Compound 15]	50%	C (less than 50% rescue of IFN-γ release)
CC(O)[C@H](NC(=O)N[C@@H](CC(N)=O)c1nc(C2COCCN2)no1)C(=O)O (some centres unmarked) [Compound 16]	92%	B (rescue of IFN-γ release ranges from 50% to 69.9%)
CC(O)[C@H](NC(=O)N[C@@H](CCC(=O)O)c1nc(C2COCCN2)no1)C(=O)O (some centres unmarked) [Compound 17]	57%	C (less than 50% rescue of IFN-γ release)
N[C@@H](Cc1ccc(O)cc1)c1noc([C@@H]2CC(O)CN2C(=O)N[C@@H](Cc2ccc(O)cc2)C(=O)O)n1 (some centres unmarked) [Compound 18]	57%	C (less than 50% rescue of IFN-γ release)
N[C@@H](Cc1ccc(O)cc1)c1noc([C@@H]2CCCCN2C(=O)N[C@@H](Cc2ccc(O)cc2)C(=O)O)n1 [Compound 19]	54%	C (less than 50% rescue of IFN-γ release)
